Laboratory results as given in US9931320B2, “Parasiticidal oral veterinary compositions comprising systemically-acting active agents, methods and uses thereof” (MERIAL INC., priority 2012, dated 2018).

System: Trichuris vulpis (whipworm)
Assay: Efficacy against Trichuris vulpis (whipworm) in dogs (Example 14)
Details: after 7 days; treated on Day 0; 0.5 mg/kg milbemycin oxime alone or with 2.5 mg/kg Compound A; naturally infected dogs

Substance: milbemycin oxime
- Efficacy against T. vulpis (parasite counts): > 94%
